Reference: patent US11584742B2 (MASARYKOVA UNIVERZITA, priority 2018, dated 2023)

Biological target: T1, MRE11 (Homo sapiens, UniProt P49959)
T1 sequence (P49959 1-708): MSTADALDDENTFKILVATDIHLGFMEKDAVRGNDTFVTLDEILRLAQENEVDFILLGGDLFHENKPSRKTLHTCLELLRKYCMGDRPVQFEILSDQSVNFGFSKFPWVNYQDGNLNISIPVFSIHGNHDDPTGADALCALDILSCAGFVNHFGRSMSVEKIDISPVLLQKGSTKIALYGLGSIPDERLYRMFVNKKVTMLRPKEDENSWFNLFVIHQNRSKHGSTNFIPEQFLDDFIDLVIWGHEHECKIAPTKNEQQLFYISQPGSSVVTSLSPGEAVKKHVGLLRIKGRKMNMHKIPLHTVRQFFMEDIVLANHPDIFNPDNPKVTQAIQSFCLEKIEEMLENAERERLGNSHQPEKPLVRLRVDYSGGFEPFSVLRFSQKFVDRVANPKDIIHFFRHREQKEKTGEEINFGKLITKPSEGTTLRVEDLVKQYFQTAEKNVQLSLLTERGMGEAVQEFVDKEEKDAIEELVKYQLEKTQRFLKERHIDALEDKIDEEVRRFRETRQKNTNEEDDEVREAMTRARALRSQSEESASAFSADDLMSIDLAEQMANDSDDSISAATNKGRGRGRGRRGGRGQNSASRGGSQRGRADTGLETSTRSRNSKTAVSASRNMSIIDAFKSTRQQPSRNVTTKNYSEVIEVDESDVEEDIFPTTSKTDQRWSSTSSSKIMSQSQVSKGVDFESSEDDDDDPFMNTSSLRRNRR
Assay: HTS nuclease assay (cleavage of CY5/BBQ-quenched 5' overhang DNA substrate)
Format: biochemical
Details: in vitro HTS nuclease assay; 18 nM MRE11, 40 nM DNA substrate; analysis at t=4 h
Method: DNA Substrate Preparation
The DNA substrate is prepared by mixing the oligonucleotides listed below in a 1:1 ratio to reach a final concentration of 6 μM in a buffer containing 50 mM Tris pH 7.5, 100 mM NaCl and 8 mM MgCl2.
This substrate is a 5′ overhang, which is a preferred substrate of MRE11. […] The fluorescence increases upon substrate cleavage by MRE11, when separation of the two labels occur.
The conditions of the assay are as follows:
Total reaction volume: 5 μL
DNA substrate concentration in the reaction: 40 nM
Inhibitor concentration range tested: 7 nM-50 μM
Each plate contains a series of high and low signal control wells, where no compound is added:
High signal: MRE11+DNA substrate
Low signal: DNA substrate only
These are used during data evaluation.
Two extra assay controls:
1) To check whether unwinding of DNA by the compounds alone occurs.
The DNA substrate [CY5+BBQ(650)] is mixed with the compounds with no protein present.
The CY5 single stranded oligo is mixed with the compounds with no protein present.
The layout of the plates is created by the in-house software (CZ-Openscreen Prague) and this information is transferred to the robotic HTS station.
The reaction is started by the addition of DNA and the reaction time is counted from that moment, including a 15 min delay. Ten timepoints are measured:
The assay data analysis was performed at t=4 h. This corresponds to the time when the reaction is close to its maximum.
The data analysis was performed using the in-house software to obtain IC50 for each compound.

Which IC50 does the source give for `N#C/C(=C\c1ccc(O)c(Br)c1)C(=O)Nc1nc(-c2ccccc2)cs1` [Preparative Example 202, (E)-3-(3-bromo-4-hydroxyphenyl)-2-cyano-N-(4-phenylthiazol-2-yl)acrylamide] here?
Its IC50 is 2 to 10 µM.

For `CC(C)(C)c1ccc(-c2csc(NC(=O)/C(C#N)=C/c3cc(Cl)c(O)c(Cl)c3)n2)cc1` [Preparative Example 224, (E)-N-(4-(4-(tert-butyl)phenyl)thiazol-2-yl)-2-cyano-3-(3,5-dichloro-4-hydroxyphenyl)acrylamide], which IC50 is on record?
Its IC50 is 2 to 10 µM.

Which IC50 does the source give for `Cc1cc(/C=C(\C#N)C(=O)Nc2nc(-c3ccccn3)cs2)cc(C)c1O` [Preparative Example 248, (E)-2-cyano-3-(4-hydroxy-3,5-dimethylphenyl)-N-(4-(pyridin-2-yl)thiazol-2-yl)acrylamide] here?
Its IC50 is 10 to 90 µM.

With `N#C/C(=C\c1cc(Br)c(O)c(Br)c1)C(=O)Nc1nc(-c2ccccn2)cs1` [Preparative Example 249, (E)-2-cyano-3-(3,5-dibromo-4-hydroxyphenyl)-N-(4-(pyridin-2-yl)thiazol-2-yl)acrylamide] as the compound, how does the IC50 read?
The IC50 was < 2 µM.

Which IC50 does the source give for `Cc1cc(/C=C(\C#N)C(=O)Nc2nc(-c3ncccc3F)cs2)cc(C)c1O` [Preparative Example 250, (E)-2-cyano-N-(4-(3-fluoropyridin-2-yl)thiazol-2-yl)-3-(4-hydroxy-3,5-dimethylphenyl)acrylamide] here?
Its IC50 is 10 to 90 µM.

With `N#C/C(=C\c1cc(Br)c(O)c(Br)c1)C(=O)Nc1nc(-c2ncccc2F)cs1` [Preparative Example 251, (E)-2-cyano-3-(3,5-dibromo-4-hydroxyphenyl)-N-(4-(3-fluoropyridin-2-yl)thiazol-2-yl)acrylamide] as the compound, how does the IC50 read?
Its IC50 is < 2 µM.

For `N#C/C(=C\c1cc(Cl)c(O)c(Cl)c1)C(=O)Nc1nc(-c2ncccc2F)cs1` [Preparative Example 252, (E)-2-cyano-3-(3,5-dichloro-4-hydroxyphenyl)-N-(4-(3-fluoropyridin-2-yl)thiazol-2-yl)acrylamide], which IC50 is on record?
The IC50 was < 2 µM.

For `N#C/C(=C\c1ccc(O)c(C(=O)O)c1)C(=O)Nc1nc(-c2ccccc2)cs1` [Preparative Example 254, (E)-5-(2-cyano-3-oxo-3-((4-phenylthiazol-2-yl)amino)prop-1-en-1-yl)-2-hydroxybenzoic acid], which IC50 is on record?
Its IC50 is 10 to 90 µM.

For `N#C/C(=C\c1ccc(O)c(C(N)=O)c1)C(=O)Nc1nc(-c2ccccc2)cs1` [Preparative Example 255, (E)-5-(2-cyano-3-oxo-3-((4-phenylthiazol-2-yl)amino)prop-1-en-1-yl)-2-hydroxybenzamide], which IC50 is on record?
Its IC50 is 10 to 90 µM.

Which IC50 does the source give for `N#C/C(=C\c1ccc(O)cc1Br)C(=O)Nc1nc(-c2ccccc2)cs1` [Preparative Example 256, (E)-3-(2-bromo-4-hydroxyphenyl)-2-cyano-N-(4-phenylthiazol-2-yl)acrylamide] here?
The IC50 was 10 to 90 µM.

`COC(=O)c1ccc(/C=C(\C#N)C(=O)Nc2nc(-c3ccccc3)cs2)cc1O` [Preparative Example 258, Methyl (E)-4-(2-cyano-3-oxo-3-((4-phenylthiazol-2-yl)amino)prop-1-en-1-yl)-2-hydroxybenzoate] was tested. Which IC50 did it give?
The IC50 was 2 to 10 µM.

Which IC50 does the source give for `N#C/C(=C\c1ccc(C(=O)O)c(O)c1)C(=O)Nc1nc(-c2ccccc2)cs1` [Preparative Example 259, (E)-4-(2-cyano-3-oxo-3-((4-phenylthiazol-2-yl)amino)prop-1-en-1-yl)-2-hydroxybenzoic acid] here?
The IC50 was 2 to 10 µM.

With `N#C/C(=C\c1ccc(O)c(CO)c1)C(=O)Nc1nc(-c2ccccc2)cs1` [Preparative Example 260, (E)-2-cyano-3-(4-hydroxy-3-(hydroxymethyl)phenyl)-N-(4-phenylthiazol-2-yl)acrylamide] as the compound, how does the IC50 read?
Its IC50 is 2 to 10 µM.

With `N#C/C(=C\c1ccc(O)c(O)c1)C(=O)Nc1nc(C(=O)c2ccccc2)cs1` [Preparative Example 261, (E)-N-(4-benzoylthiazol-2-yl)-2-cyano-3-(3,4-dihydroxyphenyl)acrylamide] as the compound, how does the IC50 read?
The IC50 was < 2 µM.

With `N#C/C(=C\c1ccc(O)c(O)c1)C(=O)Nc1ncc(-c2cnccn2)s1` [Preparative Example 262, (E)-2-cyano-3-(3,4-dihydroxyphenyl)-N-(5-(pyrazin-2-yl)thiazol-2-yl)acrylamide] as the compound, how does the IC50 read?
Its IC50 is 10 to 90 µM.

How did the IC50 turn out when `N#C/C(=C\c1ccc(O)c(O)c1)C(=O)Nc1nc(-c2ccccn2)c(-c2cnccn2)s1` [Preparative Example 263, (E)-2-cyano-3-(3,4-dihydroxyphenyl)-N-(5-(pyrazin-2-yl)-4-(pyridin-2-yl)thiazol-2-yl)acrylamide] was run?
The IC50 was < 2 µM.

`N#C/C(=C\c1ccc(O)c(O)c1)C(=O)Nc1nc(-c2cccc(N3CCOCC3)n2)cs1` [Preparative Example 264, (E)-2-cyano-3-(3,4-dihydroxyphenyl)-N-(4-(6-morpholinopyridin-2-yl)thiazol-2-yl)acrylamide] was tested. Which IC50 did it give?
Its IC50 is 2 to 10 µM.

For `N#C/C(=C\c1ccc(O)c(O)c1)C(=O)Nc1nc(-c2ccc(N3CCOCC3)nc2)cs1` [Preparative Example 265, (E)-2-cyano-3-(3,4-dihydroxyphenyl)-N-(4-(6-morpholinopyridin-3-yl)thiazol-2-yl)acrylamide], which IC50 is on record?
Its IC50 is 2 to 10 µM.

With `N#C/C(=C\c1cc(O)c(O)c(Br)c1)C(=O)Nc1nc(-c2ccccc2)cs1` [Preparative Example 266, (E)-3-(3-bromo-4,5-dihydroxyphenyl)-2-cyano-N-(4-phenylthiazol-2-yl)acrylamide] as the compound, how does the IC50 read?
The IC50 was < 2 µM.

`N#C/C(=C\c1cc(O)c(O)c(F)c1)C(=O)Nc1nc(-c2ccccc2)cs1` [Preparative Example 267, (E)-2-cyano-3-(3-fluoro-4,5-dihydroxyphenyl)-N-(4-phenylthiazol-2-yl)acrylamide] was tested. Which IC50 did it give?
The IC50 was < 2 µM.

How did the IC50 turn out when `COc1cc(/C=C(\C#N)C(=O)Nc2nc(-c3ccccc3)cs2)cc(C#N)c1O` [Preparative Example 268, (E)-2-cyano-3-(3-cyano-4-hydroxy-5-methoxyphenyl)-N-(4-phenylthiazol-2-yl)acrylamide] was run?
The IC50 was 10 to 90 µM.

With `N#C/C(=C\c1cc(O)c(O)c(C#N)c1)C(=O)Nc1nc(-c2ccccc2)cs1` [Preparative Example 269, (E)-2-cyano-3-(3-cyano-4,5-dihydroxyphenyl)-N-(4-phenylthiazol-2-yl)acrylamide] as the compound, how does the IC50 read?
The IC50 was < 2 µM.

With `N#C/C(=C\c1ccc(O)c(O)c1)C(=O)Nc1nc(-c2ncc(N3CCOCC3)cc2F)cs1` [Preparative Example 270, (E)-2-cyano-3-(3,4-dihydroxyphenyl)-N-(4-(3-fluoro-5-morpholinopyridin-2-yl)thiazol-2-yl)acrylamide] as the compound, how does the IC50 read?
The IC50 was < 2 µM.

`N#C/C(=C\c1cc(Br)c(O)c(Br)c1)C(=O)Nc1nc(-c2ncc(N3CCOCC3)cc2F)cs1` [Preparative Example 271, (E)-2-cyano-3-(3,5-dibromo-4-hydroxyphenyl)-N-(4-(3-fluoro-5-morpholinopyridin-2-yl)thiazol-2-yl)acrylamide] was tested. Which IC50 did it give?
The IC50 was < 2 µM.

`N#C/C(=C\c1cc(O)c(O)c(Br)c1)C(=O)Nc1nc(-c2ncc(N3CCOCC3)cc2F)cs1` [Preparative Example 272, (E)-3-(3-bromo-4,5-dihydroxyphenyl)-2-cyano-N-(4-(3-fluoro-5-morpholinopyridin-2-yl)thiazol-2-yl)acrylamide] was tested. Which IC50 did it give?
Its IC50 is < 2 µM.

`N#C/C(=C\c1ccc(O)c(O)c1)C(=O)Nc1nc(Cc2ccccc2)cs1` [Preparative Example 273, (E)-N-(4-benzylthiazol-2-yl)-2-cyano-3-(3,4-dihydroxyphenyl)acrylamide] was tested. Which IC50 did it give?
The IC50 was < 2 µM.
